Source: ChEMBL document CHEMBL1255253, “The naphthyridinone GSK364735 is a novel, potent human immunodeficiency virus type 1 integrase inhibitor and antiretroviral” (Antimicrob Agents Chemother, 2008)
Calls of active or inactive are those of the source. The rule behind the calls is not given here.

Experiments:
[1] = test system: Human immunodeficiency virus 1; assay type: functional, organism-based; details: NL432, MT4
[2] = test system: Human immunodeficiency virus 1; assay type: functional, organism-based; details: NL432, MT4; remark: listed apart in the source
[3] = test system: Human immunodeficiency virus 1; assay type: functional, organism-based; details: NL432, MT4; remark: listed apart in the source
[4] = test system: Human immunodeficiency virus 1; assay: Antiviral activity against Human immunodeficiency virus 1 Ba-L infected in human PBMCs assessed as inhibition of viral replication; assay type: functional, organism-based
[5] = molecular target: T1, Human immunodeficiency virus type 1 integrase (Human immunodeficiency virus 1, UniProt Q7ZJM1); assay: Displacement of 20 nM [3H]GSK304649 from Human immunodeficiency virus 1 integrase by scintillation proximity assay
[6] = test system: Human immunodeficiency virus 1; assay type: functional, organism-based; details: Human immunodeficiency virus 1, 3B, MT4
[7] = test system: Human immunodeficiency virus; assay: microbe, parasite or virus in culture; details: Human immunodeficiency virus 1, MT4
Description: Antiviral activity against vesicular stomatitis virus G-pseudotyped Human immunodeficiency virus infected in human MT-4 cells assessed as inhibition of viral replication

[8] = test system: Human immunodeficiency virus 1; assay: Antiviral activity against INI-resistant Human immunodeficiency virus 1 expressing integrase N155S mutant gene infected in human HeLa-CD4 cells after 3 days; assay type: functional, organism-based
[9] = molecular target: T1, Human immunodeficiency virus type 1 integrase; assay: Inhibition of Human immunodeficiency virus 1 integrase by strand transfer scintillation proximity assay
[10] = test system: Human immunodeficiency virus 1; assay: Antiviral activity against INI-resistant Human immunodeficiency virus 1 expressing integrase S153Y mutant gene infected in human HeLa-CD4 cells after 3 days; assay type: functional
[11] = test system: Human immunodeficiency virus 1; assay: Antiviral activity against INI-resistant Human immunodeficiency virus 1 expressing integrase M154I mutant gene infected in human HeLa-CD4 cells after 3 days; assay type: functional
[12] = test system: Human immunodeficiency virus 1; assay: Antiviral activity against INI-resistant Human immunodeficiency virus 1 expressing integrase P145S mutant gene infected in human HeLa-CD4 cells after 3 days; assay type: functional
[13] = test system: Human immunodeficiency virus 1; assay: Antiviral activity against RTI-resistant Human immunodeficiency virus 1; assay type: functional, organism-based
[14] = test system: Human immunodeficiency virus 1; assay: Antiviral activity against INI-resistant Human immunodeficiency virus 1 expressing integrase Q148R mutant gene infected in human HeLa-CD4 cells after 3 days; assay type: functional, organism-based
[15] = test system: Human immunodeficiency virus 1; assay: Antiviral activity against INI-resistant Human immunodeficiency virus 1 expressing integrase E92Q mutant gene infected in human HeLa-CD4 cells after 3 days; assay type: functional
[16] = test system: Human immunodeficiency virus 1; assay: Antiviral activity against INI-resistant Human immunodeficiency virus 1 expressing integrase T66K mutant gene infected in human HeLa-CD4 cells after 3 days; assay type: functional, organism-based
[17] = molecular target: T1, Human immunodeficiency virus type 1 integrase; assay: Displacement of [3H]GSK304649 from Human immunodeficiency virus 1 integrase by scintillation proximity assay
[18] = test system: Human immunodeficiency virus 1; assay: Antiviral activity against INI-resistant Human immunodeficiency virus 1 expressing integrase T124A mutant gene infected in human HeLa-CD4 cells after 3 days; assay type: functional
[19] = test system: Human immunodeficiency virus 1; assay: Antiviral activity against PI-resistant Human immunodeficiency virus 1; assay type: functional, organism-based
[20] = test system: Human immunodeficiency virus 1; assay: Antiviral activity against INI-resistant Human immunodeficiency virus 1 expressing integrase T66I mutant gene infected in human HeLa-CD4 cells after 3 days; assay type: functional
[21] = test system: Human immunodeficiency virus 1; assay: Antiviral activity against INI-resistant Human immunodeficiency virus 1 expressing integrase Q148K mutant gene infected in human HeLa-CD4 cells after 3 days; assay type: functional, organism-based
[22] = test system: Human immunodeficiency virus 1; assay: Antiviral activity against INI-resistant Human immunodeficiency virus 1 expressing integrase F121Y mutant gene infected in human HeLa-CD4 cells after 3 days; assay type: functional, organism-based
[23] = test system: Human immunodeficiency virus 1; assay: Antiviral activity against Human immunodeficiency virus 1 Ba-L infected in human PBMCs assessed as inhibition of viral replication in presence of human serum; assay type: functional, organism-based
[24] = test system: Human immunodeficiency virus 1; assay: Antiviral activity against INI-resistant Human immunodeficiency virus 1 expressing integrase Q146R mutant gene infected in human HeLa-CD4 cells after 3 days; assay type: functional

T1 sequence (Q7ZJM1 whole entry): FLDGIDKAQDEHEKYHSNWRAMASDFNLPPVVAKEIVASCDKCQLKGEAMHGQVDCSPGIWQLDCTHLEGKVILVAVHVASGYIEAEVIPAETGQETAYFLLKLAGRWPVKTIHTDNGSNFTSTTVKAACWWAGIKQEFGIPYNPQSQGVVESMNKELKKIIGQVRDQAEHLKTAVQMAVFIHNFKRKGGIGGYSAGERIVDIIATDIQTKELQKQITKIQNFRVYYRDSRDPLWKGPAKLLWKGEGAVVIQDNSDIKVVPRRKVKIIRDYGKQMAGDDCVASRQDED

Row | SMILES | Activity [1] | Activity [2] | Activity [3] | EC50 [4] [nM] | IC50 [5] [nM] | EC50 [6] [nM] | EC50 [7] [nM] | further results
1 | O=C1Nc2ccc(Cl)cc2[C@@](C#CC2CC2)(C(F)(F)F)O1 | Dose-dependent effect | Dose-dependent effect | inactive |  |  |  |  | 
2 | O=C(NCc1ccc(F)cc1)c1nc(N2CCCCS2(=O)=O)c2cccnc2c1O | Dose-dependent effect | Dose-dependent effect | inactive | 3 | 13 | 11 | 2.2 | Kd [5]: 3.3 nM
3 | Cc1nnc(C(=O)NC(C)(C)c2nc(C(=O)NCc3ccc(F)cc3)c(O)c(=O)n2C)o1 |  |  |  | 2 |  | 1.8 | 2 | 
4 | Cn1c(=O)c(C(=O)NCCO)c(O)c2ncc(Cc3ccc(F)cc3)cc21 [GSK-364735] | Dose-dependent effect | Dose-dependent effect | inactive | 2 | 11 | 5 | 1.7 | Activity [8]: inactive; IC50 [9]: 7.8 nM; fold change (FC) [10]: 1.4; fold change (FC) [11]: 0.8; fold change (FC) [12]: 1.4; IC50 [13]: 2.2 nM; Activity [14]: inactive; fold change (FC) [15]: 3.7; Activity [16]: inactive; Kd [17]: 26 nM; fold change (FC) [18]: 1; IC50 [19]: 2 nM; fold change (FC) [20]: 1.2; Activity [21]: inactive; Activity [22]: inactive; EC50 [23]: 42 nM; fold change (FC) [24]: 1.7
5 | COc1cc2c(cc1Cc1cccc(Cl)c1F)c(=O)c(C(=O)O)cn2[C@H](CO)C(C)C |  |  |  | 2 |  | 2 | 1 | 
